Results from PubChem BioAssay (NCI).
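Growth conditions: 96-well plates. Treatment: test compound, 48 hours, 5 concentrations. Analysis: linear interpolation between bracketing concentrations; unreached endpoints set to highest concentration. Here, GI50 denotes the concentration required for 50% inhibition of growth. TGI: total growth inhibition.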

How the values were obtained:
Experiment in all cases: growth of human tumour cells (NCI), 48 h
[1] = tested on: SK-MEL-2 melanoma
[2] = tested on: LXFL 529 NSCLC
[3] = tested on: MOLT-4 leukemia
[4] = tested on: DLD-1 colon
[5] = tested on: HOP-62 NSCLC
[6] = tested on: M19-MEL melanoma
[7] = tested on: XF 498 CNS
[8] = tested on: SNB-19 CNS
[9] = tested on: NCI-H226 lung
[10] = tested on: RPMI-8226 leukemia

O=C1C2=C(CC3C(C2)C3(Br)Br)C(=O)C2=C1CC1C(C2)C1(Br)Br (stereo unspecified)
TGI [1]: > 100 µM
TGI [2]: > 100 µM
TGI [3]: > 100 µM
TGI [4]: > 100 µM
TGI [5]: > 100 µM
TGI [6]: > 100 µM
TGI [7]: > 100 µM
TGI [8]: > 100 µM
TGI [9]: > 100 µM

CSc1ccc(/C=C2/C[N+](C)(C)C/C(=C/c3ccc(SC)cc3)C2=O)cc1
TGI [1]: 36.2 µM
TGI [3]: 67.4 µM
TGI [4]: 22.8 µM
TGI [10]: 9.92 µM
TGI [6]: 19.8 µM
TGI [7]: 29.1 µM
TGI [9]: 72.5 µM

NCCCNCCSSCCCCS(=O)O
TGI [2]: 92.2 µM
TGI [3]: 47.1 µM
TGI [4]: > 100 µM
TGI [5]: > 100 µM
TGI [10]: > 100 µM
TGI [6]: 40.5 µM
TGI [7]: 37.4 µM
TGI [8]: > 100 µM
TGI [9]: > 100 µM

Cn1cc(C2=C(c3cn(C)c4c(N)cccc34)C(=O)NC2=O)c2ccccc21
GI50 [1]: 1.56 µM
TGI [1]: 11 µM
GI50 [3]: 3.35 µM
TGI [3]: 21.6 µM
GI50 [5]: 1.25 µM
TGI [5]: > 15.2 µM
GI50 [10]: 2.44 µM
TGI [10]: 12.5 µM
GI50 [8]: 4.34 µM
TGI [8]: > 25 µM
GI50 [9]: 3.28 µM
TGI [9]: > 22.1 µM

COc1cc(Cc2cc(OC)c(OC)c(OC)c2)ccc1O
TGI [1]: 64.5 µM
TGI [2]: > 100 µM
TGI [3]: > 100 µM
TGI [4]: > 100 µM
TGI [5]: > 100 µM
TGI [10]: > 100 µM
TGI [6]: > 100 µM
TGI [7]: > 100 µM
TGI [8]: > 100 µM
TGI [9]: > 100 µM

COc1cc(C(=O)O[C@H](C(N)=O)[C@]2(C)CO2)c2ccccc2c1
GI50 [1]: 17.2 µM
TGI [1]: 42.7 µM
GI50 [3]: 17 µM
TGI [3]: 48.9 µM
GI50 [5]: 5.72 µM
TGI [5]: 17.9 µM
GI50 [10]: 22.8 µM
TGI [10]: > 100 µM
GI50 [8]: 15.8 µM
TGI [8]: 30.3 µM
GI50 [9]: 20.1 µM
TGI [9]: 38.4 µM

CCN(CC)C(=O)C/C(C)=N/NC(=O)c1ccncc1
TGI [1]: > 100 µM
TGI [2]: > 100 µM
TGI [3]: > 100 µM
TGI [4]: > 100 µM
TGI [5]: > 100 µM
TGI [10]: > 100 µM
TGI [7]: > 100 µM
TGI [9]: > 100 µM

CCOC(=O)NC(=O)c1cn(CCCOC(=O)NCCCCCCNC(=O)OCCCn2c(=O)c(C(=O)NC(=O)OCC)cn(C)c2=O)c(=O)n(C)c1=O
TGI [1]: > 100 µM
TGI [2]: > 100 µM
TGI [3]: > 100 µM
TGI [4]: > 100 µM
TGI [10]: > 100 µM
TGI [6]: > 100 µM
TGI [9]: > 100 µM

COC(=O)C1=C(c2ccc3c(c2)OCO3)O[C@H](c2ccc3c(c2)OCO3)[C@H]1COC(C)=O
TGI [1]: > 100 µM
TGI [2]: > 100 µM
TGI [3]: > 100 µM
TGI [4]: > 100 µM
TGI [5]: > 100 µM
TGI [10]: > 100 µM
TGI [6]: > 100 µM
TGI [7]: > 100 µM
TGI [9]: > 100 µM

COC(=O)CSc1n[nH]c(-c2ccc(O)c([N+](=O)[O-])c2)n1
TGI [1]: > 100 µM
TGI [2]: > 100 µM
TGI [3]: > 100 µM
TGI [4]: > 100 µM
TGI [10]: > 100 µM
TGI [7]: > 100 µM
TGI [8]: > 100 µM
TGI [9]: > 100 µM

COc1ccc(OC)c(/C=C/NC=O)c1
TGI [1]: > 100 µM
TGI [2]: > 100 µM
TGI [3]: > 100 µM
TGI [4]: > 100 µM
TGI [5]: > 100 µM
TGI [10]: > 100 µM
TGI [6]: > 100 µM
TGI [7]: > 100 µM
TGI [8]: > 100 µM
TGI [9]: > 100 µM

CC(C)=CC(=O)N1CCN(C(=O)C=C(C)C)CC1
TGI [2]: > 100 µM
TGI [3]: > 100 µM
TGI [4]: > 100 µM
TGI [5]: > 100 µM
TGI [10]: > 100 µM
TGI [6]: > 100 µM
TGI [7]: > 100 µM
TGI [8]: > 100 µM

O=S(O)CCCCSSCCCCSSCCCCS(=O)O
TGI [1]: > 100 µM
TGI [2]: 28.4 µM
TGI [3]: 43.9 µM
TGI [4]: > 100 µM
TGI [6]: > 100 µM
TGI [7]: 21.4 µM
TGI [8]: > 100 µM

CCCCCCCCCCCCCCCCOP(=O)(O)Oc1ccc(/C=C\c2ccc(OP(=O)(O)OCCCCCCCCCCCCCCCC)cc2)cc1
TGI [1]: > 100 µM
TGI [2]: > 100 µM
TGI [3]: > 100 µM
TGI [4]: > 100 µM
TGI [5]: > 100 µM
TGI [10]: 80 µM
TGI [6]: > 100 µM
TGI [8]: > 100 µM
TGI [9]: > 100 µM

O=C(CCCSc1nc(-c2ccc(Cl)cc2)cc(-c2ccc(Cl)cc2)n1)NO
GI50 [1]: 4.02 µM
TGI [1]: 20.4 µM
GI50 [3]: 0.76 µM
TGI [3]: > 100 µM
GI50 [5]: 0.618 µM
TGI [5]: 11.9 µM
GI50 [10]: 1.38 µM
TGI [10]: 36.7 µM
GI50 [8]: 1.92 µM
TGI [8]: 13.2 µM
GI50 [9]: 2.17 µM
TGI [9]: 11.6 µM

CCCCNC(=O)NS(=O)(=O)c1ccc(N2N=C(c3ccc(C)cc3C)CC2c2ccc(N(C)C)cc2)cc1 (stereo unspecified)
GI50 [1]: 3.13 µM
TGI [1]: 8.46 µM
GI50 [3]: 3.61 µM
TGI [3]: > 100 µM
GI50 [5]: 6.86 µM
TGI [5]: > 100 µM
GI50 [10]: 2.99 µM
TGI [10]: 9.66 µM
GI50 [8]: 4.59 µM
TGI [8]: > 100 µM
GI50 [9]: 4.54 µM
TGI [9]: 21.8 µM

COc1ccc(C(=O)O)c(Cc2cccc3ccccc23)c1
TGI [1]: > 100 µM
TGI [2]: > 100 µM
TGI [3]: > 100 µM
TGI [4]: > 100 µM
TGI [5]: > 100 µM
TGI [6]: > 100 µM
TGI [8]: > 100 µM
TGI [9]: > 100 µM

CNC=O.[O]=[Ge].[O]=[Ge].[O]=[Ge].[O]=[Ge][OH].[O]=[Ge][OH]
TGI [1]: > 100 µM
GI50 [2]: > 100 µM
TGI [2]: > 100 µM
TGI [3]: > 100 µM
TGI [4]: > 100 µM
TGI [5]: > 100 µM
TGI [10]: > 100 µM
TGI [6]: > 100 µM
TGI [7]: > 100 µM
TGI [8]: > 100 µM
TGI [9]: > 100 µM

O=c1[nH]c(=O)n(C2CC(O)C(CS)O2)cc1F (stereo unspecified)
TGI [1]: > 100 µM
TGI [3]: > 100 µM
TGI [4]: > 100 µM
TGI [5]: > 93.8 µM
TGI [10]: > 100 µM
TGI [6]: > 100 µM
TGI [7]: > 100 µM
TGI [8]: > 100 µM
TGI [9]: > 100 µM

COc1cc(Cn2c(-c3ccccc3)cc3c2-c2oncc2CC3)cc(OC)c1OC
GI50 [1]: 18.6 µM
TGI [1]: > 100 µM
GI50 [3]: 0.976 µM
TGI [3]: > 100 µM
GI50 [5]: 2.37 µM
TGI [5]: > 100 µM
GI50 [10]: 5.43 µM
TGI [10]: > 100 µM
GI50 [8]: 1.93 µM
TGI [8]: > 100 µM
GI50 [9]: 3.76 µM
TGI [9]: > 100 µM

COc1ccc(C2CC(=O)c3c(O)c(OC)c(OC)c(OC)c3O2)c(O)c1 (stereo unspecified)
GI50 [1]: 0.0809 µM
TGI [1]: 23.4 µM
GI50 [3]: 1.65 µM
TGI [3]: 29.6 µM
GI50 [5]: 0.211 µM
TGI [5]: 28.2 µM
GI50 [10]: 0.372 µM
TGI [10]: 18.4 µM
GI50 [8]: 0.384 µM
TGI [8]: > 100 µM
GI50 [9]: 4.49 µM
TGI [9]: 24.7 µM
